Consider 85 molecules from PubChem BioAssay AID1645865 (Buhrlage Lab, Dana-Farber Cancer Institute and Novartis …, 2021).

Calls of active or inactive are those of the source.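 The calls were made as follows: active = maximal inhibition of the USP30 enzyme reaching 30% or more across the dose series; inactive = the rest.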

The experiment addresses Ubiquitin carboxyl-terminal hydrolase 30 (Homo sapiens) (UniProt Q70CQ3). Description: ubiquitin-specific protease 30 DUB inhibitors, concentration-effect, biochemical, validation of primary actives (AID 1645865). The settings on record: purified USP30, Ub-rhodamine cleavage, fluorescence, 2 h.

Chain of Ubiquitin carboxyl-terminal hydrolase 30 (Homo sapiens) (Q70CQ3 whole entry, looked up): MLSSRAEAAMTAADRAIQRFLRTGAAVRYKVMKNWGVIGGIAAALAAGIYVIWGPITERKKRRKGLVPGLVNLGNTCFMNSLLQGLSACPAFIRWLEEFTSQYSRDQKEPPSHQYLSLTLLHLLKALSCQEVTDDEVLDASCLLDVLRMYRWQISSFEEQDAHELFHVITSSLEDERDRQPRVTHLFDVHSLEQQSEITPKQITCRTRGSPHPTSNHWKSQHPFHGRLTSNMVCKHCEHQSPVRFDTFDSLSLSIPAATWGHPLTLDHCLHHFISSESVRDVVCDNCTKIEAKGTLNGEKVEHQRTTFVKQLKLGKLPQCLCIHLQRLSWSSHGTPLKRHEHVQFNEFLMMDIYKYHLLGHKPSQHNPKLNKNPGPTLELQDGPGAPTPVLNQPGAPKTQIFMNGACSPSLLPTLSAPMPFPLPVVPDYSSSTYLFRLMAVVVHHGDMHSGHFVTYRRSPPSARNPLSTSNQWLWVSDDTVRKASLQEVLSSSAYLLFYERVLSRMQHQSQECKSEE

As to `Cc1nnc(NCc2cccnc2)c2c1nnn2Cc1ccccc1Cl`, the IC50 (in general, the concentration that gives 50% inhibition) was 28.3 µM. As to `Cn1c(-c2nnc(SCC(=O)NCCc3ccccc3)o2)cc2ccccc21`, the IC50 was 7 µM. Consider `O=c1[nH]c2ccc(S(=O)(=O)Nc3ccc(O)c4ccccc34)cc2[nH]1`, for which the IC50 was > 50 µM (inactive). `COc1cccc2cccc(O)c12`: the IC50 is > 50 µM (inactive). `O=C(c1ccsc1)N1CCC2(C1)Nc1cccnc1NC2=NC1CCCC1` (stereo not given): the IC50 is > 50 µM (inactive). For `Cc1ccc2[nH]c(=O)c(CN(CC3CCCO3)S(=O)(=O)c3ccccc3)cc2c1` (stereo not given) the value was 39.4 µM; for `CC(=O)c1ccc(NC(=O)CSc2nc(-c3ccccc3)nc3c2COC(C)(C)C3)cc1`, 2.77 µM. In the case of `Cc1cccc(NC(=O)CSc2nnc(-c3n[nH]c4c3CCC4)n2N)c1C`, the IC50 is 20.2 µM. For `COc1ccc(CCn2cnc3c([nH]c4ccccc43)c2=O)cc1` the value was 2.47 µM.

As to `COc1ccc(-c2cc3nc(C)cc(Nc4ccc(F)cc4)n3n2)cc1OC`, the IC50 is > 50 µM (inactive). For `Cn1c(CN2CCCCCC2)nc2cc(NC(=O)c3ccccc3)ccc21` the value was > 50 µM (inactive); for `Nc1c(C(=O)NCCc2ccccc2)nnn1-c1ccc(F)cc1`, 31.2 µM; for `CN1C(=O)c2cc(NC(=O)c3ccccc3Cl)ccc2Oc2ccccc21`, > 50 µM (inactive). Regarding `Cc1ccc(Cn2nnc(-c3ccccc3Cl)n2)cc1`, the IC50 was > 50 µM (inactive).

With `CC(C)(C)C(=O)C1C2C(=O)N(Cc3ccccc3)C(=O)C2C2c3ccccc3C=CN12` (stereo not given), the IC50 was > 50 µM (inactive).

Take `O=C(CNC(=O)c1cccc(F)c1)Nc1nc2ccccc2[nH]1`: the IC50 is 21.7 µM. In the case of `COc1ccc(NC(=O)Cn2cc(C(=O)c3ccc(C)cc3)c(=O)c3ccccc32)cc1` it was 2.32 µM.

Turning to `O=C(COC(=O)c1cc2c(s1)CCC2)c1ccc2[nH]c(=O)[nH]c2c1`, the IC50 was > 50 µM (inactive). Consider `Cc1ccc(Cn2c(=O)n(CCC(=O)NCCc3ccccc3)c(=O)c3ccccc32)cc1`, for which the IC50 was 5.14 µM. In the case of `CNC(=O)C1CN(C(=O)c2ccc(OC)cc2)CC12CCCC2` (stereo not given) it was > 50 µM (inactive); in that of `CCOc1ccc2c(c1)c(=O)c(C(=O)c1ccc(C)cc1)cn2CC(=O)Nc1ccc(OC)c(OC)c1`, 0.732 µM. As to `O=C(Cn1ccc2ccc(N3CCOCC3)nc21)NCc1ccccc1F`, the IC50 is > 50 µM (inactive). Take `O=C(c1ccco1)N1CCN=C1SCc1ccccc1F`: the IC50 was > 50 µM (inactive). In the case of `CCOc1ccc(-c2cc3nc(C4CCN(C(=O)OC(C)(C)C)CC4)c(C(=O)Nc4cc(F)ccc4F)cn3n2)cc1` it was > 50 µM (inactive); in that of `COc1ccc(CNC(=O)Nc2cccc3ccccc23)cc1`, 3.81 µM. In the case of `O=C(Nc1ccc2c(c1)OCCO2)Nc1nnc(CC(=O)N2CCCCC2)s1` it was > 50 µM (inactive); in that of `O=C(Cn1c(=O)nc(-c2ccccc2)c2ccccc21)NCc1ccc2c(c1)OCO2`, 26.2 µM; in that of `CCOc1ccc(Nc2cc(C(=O)NCCc3ccccc3)c3ccccc3n2)cc1`, 13.6 µM. On to `Cc1cc(=O)c2c(O)oc(O)c3c(O)cc(=O)c1c32`, for which the IC50 is > 50 µM (inactive).

As for `O=C(/C=C/c1ccc(F)cc1)Nc1ccc2c(c1)OCCO2`, the IC50 was > 50 µM (inactive).

For the molecule `COc1ccc(CCNC(=O)c2c(N)n(-c3cccc(Cl)c3)c3nc4ccccc4nc23)cc1`, the IC50 was > 50 µM (inactive). In the case of `O=C(CN1CCCCC1)Nc1nnc(-c2ccc([N+](=O)[O-])cc2)s1`, the IC50 is 22.5 µM. For `FC(F)(F)c1cccc(Nc2nnc(-c3cccnc3)s2)c1` the value was 2.76 µM; for `O=C(Nc1ccc(F)cc1F)NC1CCN(c2ccccc2)C1=O` (stereo not given), 25.8 µM; for `CCN1C(=O)COc2ccc(NC(=O)c3ccc(OCc4nonc4C)cc3)cc21`, 29.6 µM. Regarding `CN(C(=O)c1ccncc1)[C@H]1CC[C@@]2(C)C[C@H](c3ccccc3)C[C@](C)(O2)[C@@H]1O`, the IC50 was > 50 µM (inactive). For `COC(=O)[C@]1(O)O[C@@]2(C(=O)OC)c3c(oc4cc(C)cc(O)c4c3=O)[C@H]3c4c(oc5cc(C)cc(O)c5c4=O)C[C@H]1[C@H]32`, the IC50 is > 50 µM (inactive).

On to `CC1=C[C@@H](C)CC[C@H]2O[C@@H](C3=C(O)C(=O)C(C)=C4O[C@](O)(C=C43)[C@@H](C)C[C@H](C)C1)[C@H](C)[C@@H](O)[C@H]2C`, for which the IC50 was 22.2 µM.

Regarding `O=C(Nc1ccc(F)cc1F)c1csc(-c2ccccc2)n1`, the 50% inhibitory concentration (IC50) is 22.6 µM. For `CCCc1nc2sc3c(N(CC)CC)ncnc3c2c2c1CCC2` the value was > 50 µM (inactive); for `C[C@@H](C(=O)NCc1ccc(F)cc1)N1C(=O)N2CCc3c([nH]c4ccccc34)[C@@]2(C)C1=O`, 4.05 µM.

Regarding `CCCCc1nc2sc3c(SCC(=O)Nc4cccc(C)c4)ncnc3c2c2c1CCC2`, the IC50 is > 50 µM (inactive).

Take `O=C1COc2ccc(NC(=O)c3cnn(Cc4ccccc4)c3)cc2N1`: the IC50 is 42.2 µM. For `O=c1[nH]c(C2CCN(S(=O)(=O)c3ccc(S(=O)(=O)NC4CCCCC4)cc3)CC2)nc2c1nnn2Cc1c(Cl)cccc1Cl` the value was 12.1 µM; for `Cc1ccc2nc(NC(=O)CSc3nnc(-c4ccncc4)n3C3CC3)sc2c1`, 2.81 µM; for `COC(=O)c1ccc(NC(=O)CSc2nnc(-c3ccc(O)cc3)n2Cc2ccco2)cc1`, 4.38 µM. As to `CCN(CC(=O)Nc1cc(C)on1)c1cccc2ccccc12`, the IC50 was > 50 µM (inactive). In the case of `O=C(CSc1nnc(Cn2cnc3ccccc32)o1)Nc1ccc([N+](=O)[O-])cc1` it was 19.3 µM; in that of `NS(=O)(=O)c1cccc(NS(=O)(=O)c2ccc(/C=C/C(=O)OCC(=O)c3ccc(Br)cc3)cc2)c1`, > 50 µM (inactive); in that of `O=C(Cc1ccc(Cl)c(Cl)c1)OCC(=O)c1c[nH]c2ccccc12`, > 50 µM (inactive). For the molecule `C/C1=C/CC(O)/C=C/C(C)C(O)C(C)/C=C(\C)C(=O)c2c(O)c(C)cc3c2C(=O)C(Cl)=C(NC(=O)\C=C/C=C/C=C\C(C)C(O)CC1=O)C3=O` (stereo not given), the IC50 is > 50 µM (inactive). In the case of `CSc1nc(Cc2ccc(Cl)cc2)nc2ccccc12` it was > 50 µM (inactive); in that of `COc1cccc(C(=O)Nc2ccc(-n3cnnn3)cc2)c1`, 24.6 µM. For `COc1cc(OC)cc(-n2c(=O)c3sccc3n(CC(=O)c3ccc(F)cc3)c2=O)c1` the value was 31.3 µM; for `CC1CCCCN1c1nc(F)c2c(c1F)S(=O)(=O)CCN2Cc1ccccc1` (stereo not given), > 50 µM (inactive); for `CC1(C)OC2=C(C(=O)c3cc(O)cc(O)c3C2=O)c2cc(CO)c(O)cc21`, > 50 µM (inactive). For `Cc1cc(O)c2c3c(c(O)cc2c1)C(=O)c1c(O)cccc1C3=O` the value was > 50 µM (inactive); for `COC1=CC(=O)c2c(O)c3c(c(C)c2C1=O)C[C@@]1(O)[C@H](O[C@H]2CC[C@H](O[C@H]4C[C@@](C)(O)[C@H](OC(=O)c5c(C)ccc(C)c5O)[C@H](C)O4)[C@@H](C)O2)C(=O)C(C(C)=O)=C(O)[C@@]1(O)C3=O`, 4.74 µM; for `COc1c(O)cc(CC(=O)O)c(C(C)=O)c1O`, > 5 µM (inactive). `Cc1ccc2c(c1C)NC(=O)[C@]21[C@@H]2C(=O)N(c3cc(Cl)ccc3Cl)C(=O)[C@@H]2[C@@H]2CCCN21`: the IC50 is > 50 µM (inactive). As for `O=C(Cc1cc(-c2ccc(F)cc2)on1)NCc1ccccc1`, the IC50 is 18.3 µM. For `Cc1cc(C)c2nc3c(cc2c1)CN(Cc1ccco1)C(=O)O3` the value was > 50 µM (inactive). In the case of `COc1ccccc1C(=O)N1CCc2[nH]c3ccc(F)cc3c2C1`, the IC50 was > 50 µM (inactive).

In the case of `CSc1nc2ncc3c(=O)n(CCc4ccccc4)ccc3n2n1`, the IC50 is > 50 µM (inactive). Regarding `O=C(NCCc1ccccc1F)c1cn2cc(Cl)ccc2n1`, the IC50 was 38.9 µM. On to `Cc1nn(Cc2ccccc2)c(C)c1C(=O)NC1CCCc2ccccc21` (stereo not given), for which the IC50 is > 50 µM (inactive). Consider `COc1ccc(CCNC(=O)CCCCn2c(=O)c3ccccc3n(Cc3cccc(Cl)c3)c2=O)cc1OC`, for which the concentration for half-maximal inhibition (IC50) was 24.6 µM. In the case of `O=C(COc1ccc(F)cc1)Nc1cnc(-c2ccc(Cl)cc2)nc1` it was 38 µM; in that of `NS(=O)(=O)c1ccc(Cl)c(C(=O)OCc2csc(Nc3ccccc3)n2)c1`, > 50 µM (inactive); in that of `COc1cc(NC(=O)COC(=O)Cn2cnc3ccccc32)cc(OC)c1`, > 50 µM (inactive).

`NS(=O)(=O)c1cccc(NC(=O)CN2CCCc3ccccc32)c1`: the IC50 is > 50 µM (inactive).

Turning to `CC(=O)C1=C(O)[C@]2(O)C(=O)c3c(c(C)c4ccc(C)c(O)c4c3O)C[C@H]2[C@@H](N)C1=O`, the IC50 was 4.68 µM. For `COc1cccc(NC(=O)Nc2ccc(NC(C)=O)cc2)c1`, the IC50 was 17.9 µM. On to `O=C(CC1C(=O)N(Cc2cccnc2)c2nc3ccccc3n21)Nc1cccc2ccccc12` (stereo not given), for which the IC50 is > 50 µM (inactive). In the case of `O=c1c(S(=O)(=O)c2cc(F)cc(F)c2)c[nH]c2cc(Cl)ccc12`, the IC50 was 21 µM. In the case of `COc1ccc(CCNc2c(-c3ccccc3O)nc3cnccn23)cc1OC`, the IC50 is > 50 µM (inactive). For `COc1ccc(CCNC(=O)c2ccc3ccccc3c2)cc1OC` the value was > 50 µM (inactive); for `COCCNC(=O)c1ccnn1-c1ccc2ccc(-c3cccnc3)cn12`, > 50 µM (inactive); for `COc1cccc(-c2cc(C(=O)Nc3cc(C)n(Cc4ccc(Cl)cc4)n3)no2)c1`, 4.38 µM.

For the molecule `Cc1nn(CC(=O)Nc2ccc(Br)c3cccnc23)c(=O)c2ccccc12`, the IC50 was > 5 µM (inactive). In the case of `O=C(Cn1cccc1-c1nc(-c2ccccc2)cs1)N1CCOCC1` it was 20.6 µM. As to `Cc1ccc(Cn2c(=O)c3ccccc3n3c(CCC(=O)N4CCN(c5ccccn5)CC4)nnc23)cc1`, the IC50 was 3.41 µM. For `O=C1CC(O)C(C2=CC(=O)c3c(O)cccc3C2=O)O1` (stereo not given) the value was 4.46 µM; for `Cc1nc(-c2ccccc2F)sc1C(=O)Nc1cccnc1`, > 50 µM (inactive). For `O=C(Cn1c(CSc2ccccc2)nc2ccccc21)Nc1ccccc1F` the value was > 50 µM (inactive).
